According to US4245106A, “Process for the preparation of 1-alkyl-3-aryl-4-pyrazolecarboxylates” (Monsanto Company, priority 1979, dated 1981):

Legend:
Assay type in all cases: in vivo
Quackgrass [1] = experiment: post-emergent herbicidal activity test
Procedure: (§1) The post-emergent tests were conducted as follows. The active ingredients are applied in spray form to two or three-week old specimens of various plant species. The spray, a solution or wettable powder suspension containing the appropriate rate of active ingredient to give the desired test rate and a surfactant, is applied to the plants. The treated plants are placed in a greenhouse and unless otherwise noted approximately four weeks later the effects are observed and recorded.

Canada Thistle [2] = experiment: post-emergent herbicidal activity test
Procedure: as §1

Bromus tectorum [3] = experiment: post-emergent herbicidal activity test
Procedure: as §1

Lambsquarter [4] = experiment: post-emergent herbicidal activity test
Procedure: as §1

Morningglory [5] = experiment: post-emergent herbicidal activity test
Procedure: as §1

Johnsongrass [6] = experiment: post-emergent herbicidal activity test
Procedure: as §1

Barnyard grass [7] = experiment: post-emergent herbicidal activity test
Procedure: as §1

Nutsedge [8] = experiment: post-emergent herbicidal activity test
Procedure: as §1

Smartweed [9] = experiment: post-emergent herbicidal activity test
Procedure: as §1

Cocklebur [10] = experiment: post-emergent herbicidal activity test
Procedure: as §1

Velvetleaf [11] = experiment: post-emergent herbicidal activity test
Procedure: as §1

Quackgrass [12] = experiment: pre-emergent herbicidal activity test
Procedure: (§2) Table II summarizes results of tests conducted to determine the pre-emergent as well as the post-emergent herbicidal activity of the compounds. The pre-emergent test was conducted as follows:
(§3) A good grade of top soil was placed in aluminum pans and compacted to a depth of three-eighths to one-half inch from the top of the pan. On the top of the soil was placed a predetermined number of seeds or vegetative propagules of various plant species. The soil required to level fill the pans after seeding or adding vegetative propagules was weighed into a pan. A known amount of the active ingredient applied in a solvent or as a wettable powder and the soil were thoroughly mixed, and used as a cover layer for prepared pans. After treatment the pans were moved into a greenhouse bench where they were watered from below as needed to give adequate moisture for germination and growth.
(§4) A herbicial rating code was used to signify the extent of phytotoxicity of each species. The rating are defined as follows: […]

Canada Thistle [13] = experiment: pre-emergent herbicidal activity test
Procedure: as §2, §3, §4

Bromus tectorum [14] = experiment: pre-emergent herbicidal activity test
Procedure: as §2, §3, §4

Lambsquarter [15] = experiment: pre-emergent herbicidal activity test
Procedure: as §2, §3, §4

Morningglory [16] = experiment: pre-emergent herbicidal activity test
Procedure: as §2, §3, §4

Johnsongrass [17] = experiment: pre-emergent herbicidal activity test
Procedure: as §2, §3, §4

Barnyard grass [18] = experiment: pre-emergent herbicidal activity test
Procedure: as §2, §3, §4

Nutsedge [19] = experiment: pre-emergent herbicidal activity test
Procedure: as §2, §3, §4

Smartweed [20] = experiment: pre-emergent herbicidal activity test
Procedure: as §2, §3, §4

Cocklebur [21] = experiment: pre-emergent herbicidal activity test
Procedure: as §2, §3, §4

Velvetleaf [22] = experiment: pre-emergent herbicidal activity test
Procedure: as §2, §3, §4

[23] = 11.2 Kg/Ha, approximately four weeks later
[24] = *11.2 Kg/Ha, observed approximately 14 days after treatment
[25] = 11.2 Kg/Ha, approximately 28 days after seeding and treating
Further: ranges in brackets are in %.

CCOC(=O)c1cn(CC)nc1-c1cccc(C(F)(F)F)c1 [Example 1]
2 (50-74): Pre-Emergent herbicidal rating, J Bromus tectorum (Bromus tectorum [14]; [24]) | Pre-Emergent herbicidal rating, D Morningglory (Morningglory [16]; [24])
3 (75-100): Pre-Emergent herbicidal rating, E Lambsquarter (Lambsquarter [15]; [25]) | Pre-Emergent herbicidal rating, E Lambsquarter (Lambsquarter [15]; [24]) | Pre-Emergent herbicidal rating, K Barnyard grass (Barnyard grass [18]; [25]) | Pre-Emergent herbicidal rating, K Barnyard grass (Barnyard grass [18]; [24]) | Pre-Emergent herbicidal rating, F Smartweed (Smartweed [20]; [24]) | Pre-Emergent herbicidal rating, C Velvetleaf (Velvetleaf [22]; [25]) | Pre-Emergent herbicidal rating, C Velvetleaf (Velvetleaf [22]; [24])
1 (25-49): Post-Emergent herbicidal rating, H Quackgrass (Quackgrass [1]; [24]) | Post-Emergent herbicidal rating, A Canada Thistle (Canada Thistle [2]; [23]) | Post-Emergent herbicidal rating, A Canada Thistle (Canada Thistle [2]; [24]) | Post-Emergent herbicidal rating, J Bromus tectorum (Bromus tectorum [3]; [24]) | Post-Emergent herbicidal rating, E Lambsquarter (Lambsquarter [4]; [23]) | Post-Emergent herbicidal rating, E Lambsquarter (Lambsquarter [4]; [24]) | Post-Emergent herbicidal rating, D Morningglory (Morningglory [5]; [23]) | Post-Emergent herbicidal rating, D Morningglory (Morningglory [5]; [24]) | Post-Emergent herbicidal rating, I Johnsongrass (Johnsongrass [6]; [24]) | Post-Emergent herbicidal rating, K Barnyard grass (Barnyard grass [7]; [24]) | Post-Emergent herbicidal rating, G Nutsedge (Nutsedge [8]; [24]) | Post-Emergent herbicidal rating, F Smartweed (Smartweed [9]; [24]) | Post-Emergent herbicidal rating, B Cocklebur (Cocklebur [10]; [23]) | Post-Emergent herbicidal rating, B Cocklebur (Cocklebur [10]; [24]) | Post-Emergent herbicidal rating, C Velvetleaf (Velvetleaf [11]; [23]) | Post-Emergent herbicidal rating, C Velvetleaf (Velvetleaf [11]; [24]) | Pre-Emergent herbicidal rating, H Quackgrass (Quackgrass [12]; [24]) | Pre-Emergent herbicidal rating, A Canada Thistle (Canada Thistle [13]; [25]) | Pre-Emergent herbicidal rating, A Canada Thistle (Canada Thistle [13]; [24]) | Pre-Emergent herbicidal rating, J Bromus tectorum (Bromus tectorum [14]; [25]) | Pre-Emergent herbicidal rating, F Smartweed (Smartweed [20]; [25]) | Pre-Emergent herbicidal rating, B Cocklebur (Cocklebur [21]; [24])
0 (0-24): Post-Emergent herbicidal rating, H Quackgrass (Quackgrass [1]; [23]) | Post-Emergent herbicidal rating, J Bromus tectorum (Bromus tectorum [3]; [23]) | Post-Emergent herbicidal rating, I Johnsongrass (Johnsongrass [6]; [23]) | Post-Emergent herbicidal rating, K Barnyard grass (Barnyard grass [7]; [23]) | Post-Emergent herbicidal rating, G Nutsedge (Nutsedge [8]; [23]) | Post-Emergent herbicidal rating, F Smartweed (Smartweed [9]; [23]) | Pre-Emergent herbicidal rating, H Quackgrass (Quackgrass [12]; [25]) | Pre-Emergent herbicidal rating, D Morningglory (Morningglory [16]; [25]) | Pre-Emergent herbicidal rating, I Johnsongrass (Johnsongrass [17]; [25]) | Pre-Emergent herbicidal rating, I Johnsongrass (Johnsongrass [17]; [24]) | Pre-Emergent herbicidal rating, G Nutsedge (Nutsedge [19]; [25]) | Pre-Emergent herbicidal rating, G Nutsedge (Nutsedge [19]; [24]) | Pre-Emergent herbicidal rating, B Cocklebur (Cocklebur [21]; [25])

CCOC(=O)c1cn(C)nc1-c1cc(C(F)(F)F)cc(C(F)(F)F)c1 [Example 10]
1 (25-49): Post-Emergent herbicidal rating, A Canada Thistle (Canada Thistle [2]; [23]) | Post-Emergent herbicidal rating, E Lambsquarter (Lambsquarter [4]; [24]) | Post-Emergent herbicidal rating, K Barnyard grass (Barnyard grass [7]; [23]) | Post-Emergent herbicidal rating, F Smartweed (Smartweed [9]; [24]) | Post-Emergent herbicidal rating, C Velvetleaf (Velvetleaf [11]; [24]) | Pre-Emergent herbicidal rating, A Canada Thistle (Canada Thistle [13]; [24]) | Pre-Emergent herbicidal rating, J Bromus tectorum (Bromus tectorum [14]; [25]) | Pre-Emergent herbicidal rating, J Bromus tectorum (Bromus tectorum [14]; [24]) | Pre-Emergent herbicidal rating, D Morningglory (Morningglory [16]; [24]) | Pre-Emergent herbicidal rating, F Smartweed (Smartweed [20]; [24]) | Pre-Emergent herbicidal rating, C Velvetleaf (Velvetleaf [22]; [24])
3 (75-100): Pre-Emergent herbicidal rating, E Lambsquarter (Lambsquarter [15]; [25]) | Pre-Emergent herbicidal rating, E Lambsquarter (Lambsquarter [15]; [24]) | Pre-Emergent herbicidal rating, K Barnyard grass (Barnyard grass [18]; [24])
0 (0-24): Post-Emergent herbicidal rating, H Quackgrass (Quackgrass [1]; [23]) | Post-Emergent herbicidal rating, H Quackgrass (Quackgrass [1]; [24]) | Post-Emergent herbicidal rating, J Bromus tectorum (Bromus tectorum [3]; [23]) | Post-Emergent herbicidal rating, J Bromus tectorum (Bromus tectorum [3]; [24]) | Post-Emergent herbicidal rating, I Johnsongrass (Johnsongrass [6]; [23]) | Post-Emergent herbicidal rating, I Johnsongrass (Johnsongrass [6]; [24]) | Post-Emergent herbicidal rating, K Barnyard grass (Barnyard grass [7]; [24]) | Post-Emergent herbicidal rating, G Nutsedge (Nutsedge [8]; [23]) | Post-Emergent herbicidal rating, G Nutsedge (Nutsedge [8]; [24]) | Post-Emergent herbicidal rating, F Smartweed (Smartweed [9]; [23]) | Post-Emergent herbicidal rating, C Velvetleaf (Velvetleaf [11]; [23]) | Pre-Emergent herbicidal rating, H Quackgrass (Quackgrass [12]; [25]) | Pre-Emergent herbicidal rating, H Quackgrass (Quackgrass [12]; [24]) | Pre-Emergent herbicidal rating, A Canada Thistle (Canada Thistle [13]; [25]) | Pre-Emergent herbicidal rating, D Morningglory (Morningglory [16]; [25]) | Pre-Emergent herbicidal rating, I Johnsongrass (Johnsongrass [17]; [25]) | Pre-Emergent herbicidal rating, I Johnsongrass (Johnsongrass [17]; [24]) | Pre-Emergent herbicidal rating, G Nutsedge (Nutsedge [19]; [25]) | Pre-Emergent herbicidal rating, G Nutsedge (Nutsedge [19]; [24]) | Pre-Emergent herbicidal rating, F Smartweed (Smartweed [20]; [25]) | Pre-Emergent herbicidal rating, B Cocklebur (Cocklebur [21]; [25]) | Pre-Emergent herbicidal rating, B Cocklebur (Cocklebur [21]; [24]) | Pre-Emergent herbicidal rating, C Velvetleaf (Velvetleaf [22]; [25])
2 (50-74): Post-Emergent herbicidal rating, A Canada Thistle (Canada Thistle [2]; [24]) | Post-Emergent herbicidal rating, E Lambsquarter (Lambsquarter [4]; [23]) | Post-Emergent herbicidal rating, D Morningglory (Morningglory [5]; [23]) | Post-Emergent herbicidal rating, D Morningglory (Morningglory [5]; [24]) | Post-Emergent herbicidal rating, B Cocklebur (Cocklebur [10]; [23]) | Post-Emergent herbicidal rating, B Cocklebur (Cocklebur [10]; [24]) | Pre-Emergent herbicidal rating, K Barnyard grass (Barnyard grass [18]; [25])
